System in one data set: not listed separately
As to the kind of experiment: Sedative effect noted in CFA arthritis model protocol. The settings on record: oral dose of 5mg/kg. Format: in vivo, rats. The method, then:
Male SD rats are injected with […] of CFA (0.1 mg heat killed and dried M. tuberculosis/ml) in the hind paw ([…] on the plantar surface of the paw) essentially as described by Bertorelli R, Corradini L, Rafiq K, Tupper J, Calo G, Ongini E., Br J Pharmacol. 1999 128(6):1252-8 and by Stein C, Millan M J, Herz A. Pharmacol Biochem Behav. 1988 31(2):455-51.
On day 7, animals are treated orally with a compound of the invention, morphine or vehicle (2% vitamin E-TPGS) 1 hour prior to testing.
T1 sequence (Q8NER1 whole entry): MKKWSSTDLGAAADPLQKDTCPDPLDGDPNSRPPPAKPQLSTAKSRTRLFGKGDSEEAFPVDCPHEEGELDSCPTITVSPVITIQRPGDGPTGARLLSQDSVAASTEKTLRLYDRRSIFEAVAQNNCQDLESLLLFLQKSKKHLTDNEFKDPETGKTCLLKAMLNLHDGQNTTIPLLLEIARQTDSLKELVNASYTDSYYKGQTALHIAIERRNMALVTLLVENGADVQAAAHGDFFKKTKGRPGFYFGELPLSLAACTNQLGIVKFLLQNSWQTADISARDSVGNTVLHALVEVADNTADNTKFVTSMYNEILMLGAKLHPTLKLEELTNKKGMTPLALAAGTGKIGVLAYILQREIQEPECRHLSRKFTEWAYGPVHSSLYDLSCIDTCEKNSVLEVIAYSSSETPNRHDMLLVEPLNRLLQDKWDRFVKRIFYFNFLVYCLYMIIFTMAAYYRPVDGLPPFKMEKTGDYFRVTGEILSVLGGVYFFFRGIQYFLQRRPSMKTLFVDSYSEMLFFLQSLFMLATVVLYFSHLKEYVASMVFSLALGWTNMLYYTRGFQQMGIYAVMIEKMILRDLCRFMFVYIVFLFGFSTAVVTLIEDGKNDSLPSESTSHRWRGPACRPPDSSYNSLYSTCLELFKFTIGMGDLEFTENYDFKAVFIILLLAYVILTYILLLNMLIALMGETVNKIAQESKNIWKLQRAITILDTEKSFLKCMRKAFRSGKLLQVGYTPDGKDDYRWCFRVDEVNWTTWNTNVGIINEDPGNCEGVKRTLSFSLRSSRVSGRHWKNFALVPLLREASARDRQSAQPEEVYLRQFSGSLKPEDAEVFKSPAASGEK
With `CN1CC[C@]23c4c5ccc(O)c4O[C@H]2[C@@H](O)C=C[C@H]3[C@H]1C5` [morphine], the sedative effects result was “has sedative effects”.

System in a further data set: not given
Test: not given
Conditions: not given
In the case of `CC(C)c1ccc(NC(=S)N2CCN(c3ncccc3Cl)C[C@H]2C)cc1` (stereo in doubt) [Example 7, 4-(3-Chloro-pyridin-2-yl)-2-methyl-piperazine-1-carbothioic acid (4-isopropyl-phenyl)-amide], the melting point lay within 49 to 51 °C.

The next data set addresses T1, human capsaicin receptor (Homo sapiens, UniProt Q8NER1).
T1 construct: expression consrtuct encoding the full length human capsaicin receptor; expressed in transfected cells
Kind of data set: Capsaicin receptor binding assay ([3H]RTX competition).
Conditions: not given
An excerpt:
Capsaicin Receptor Binding Assay
The following assay is a standard assay of capsaicin receptor binding that may be used to determine the binding affinity of compounds for the capsaicin (VR1) receptor.
Materials. [^3H]Resiniferatoxin (RTX; 37 Ci/mmol) was synthesized by and obtained from the Chemical Synthesis and Analysis Laboratory, National Cancer Institute-Frederick Cancer Research and Development Center, Frederick, MD. [^3H] […] Nonradioactive RTX may be purchased from Alexis Corp. (San Diego, Calif.) and capsazepine from RBI (Natick, Mass).
Cell Culture. […] These transfected cells are selected for two weeks in media containing G418 (400 ug/ml) and then maintained as a pool of stably transfected cells.
pUHG102 VR1 expression plasmids are transfected into Chinese Hamster Ovary (CHO) cells containing the pTet Off Regulator plasmid (Clontech). In these cells, expression of the pUHG plasmid is repressed in the presence of tetracycline but is induced upon removal of the antibiotic. Stable clones are isolated in culture medium containing puromycin (10 ug/ml) and maintained in medium supplemented with tetracycline (1 ug/ml) Cells utilized for assays are grown in culture medium without antibiotic for 48-72 hours prior to use. For radioligand binding experiments, cells are seeded in T175 cell culture flasks in media without antibiotics and grown to approximately 90% confluency. The flasks are then washed with PBS and harvested in PBS containing 5 mM EDTA. The cells are pelleted by gentle centrifugation and stored at −80° C. until assayed.
Previously frozen cells are disrupted with the aid of a tissue homogenizer in ice-cold HEPES homogenization buffer (5mM KCl 5, 5.8mM NaCl, 0.75mM CaCl2, 2mM MgCl2, 320 mM sucrose, and 10 mM HEPES pH 7.4). Tissue homogenates are first centrifuged for 10 min at 1000×g (4° C.) to remove the nuclear fraction and debris and then the supernatant from the first centrifugation is further centrifuged for 30 min at 35,000×g (4° C.) to obtain a partially purified membrane fraction. Membranes are resuspended in the HEPES homogenization buffer prior to being assayed. An aliquot of this membrane homogenate is used to determine protein concentration via the Bradford method (BIO-RAD Protein Assay Ki t, #500-0001, BIO-RAD, Hercules, Calif.).
Binding assay mixtures were set up on ice and contained [^3H]RTX (specific activity 2200 mCi/ml), 2 ul non-radioactive ligands test compound, 0.25 mg/ml bovine serum albumin (Cohn fraction V), and 5×10^4−1×10^5 VR1-transfected cells. The final volume was adjusted to 500 ul (competition binding assays) or 1,000 ul (saturation binding assays) with the ice-cold HEPES homogenization buffer solution (pH 7.4) described above. Non-specific binding was defined as that occurring in the presence of 1 uM non-radioactive RTX. For saturation binding, [^3H]RTX was added in the concentration range of 7 - 1,000 pM, using 1 to 2 dilutions. Typically 11 concentration points are collected per saturation binding curve.
Competition binding assays were performed in the presence of 60 pM [^3H]RTX and various concentrations of competing ligands. The binding reactions are initiated by transferring the assay mixtures into a 37° C. water bath and are terminated following a 60 min incubation period by cooling the tubes on ice. Membrane-bound RTX is separated from free, as well as any alpha1-acid glycoprotein-bound RTX, by filtration onto WALLAC glass fiber filters (PERKIN-ELMER, Gaithersburg, Md.) which are pre-soaked with 1.0% PEI (polyethyleneimine) for 2 hours prior to use.
In the case of `CC(C)c1ccc(NC(=O)N2CCN(c3ncccc3C#N)CC2)cc1` [Compound 12, 4-(3-Cyano-2-pyridinyl)-N-[4-(isopropyl)phenyl]-1-piperazinecarboxamide], the Ki was below 4000 nM.

The data set is the same for the next values; noted with them: Table II; read-out: Activity.
For the compound “4-(3-Chloro-2-pyridinyl)-N-[4-(isopropyl)phenyl]-1-piperazinecarboxamide [Compound 14]”, the Ki was below 4000 nM.

As to `CCCCc1ccc(NC(=O)N2CCN(c3ncccc3[N+](=O)[O-])CC2)cc1` [Compound 2, 4-(3-Nitro-2-pyridinyl)-N-[4-(n-butyl)phenyl]-1-piperazinecarboxamide], the Ki is below 4000 nM.

`CCCCc1ccc(NC(=O)N2CCN(c3ncccc3C(F)(F)F)CC2)cc1` [Compound 3, 4-(3-Trifluoromethyl-2-pyridinyl)-N-[4-(n-butyl)phenyl]-1-piperazinecarboxamide]: the Ki is below 4000 nM.

Consider `Cc1cccnc1N1CCN(C(=O)Nc2ccc(C(C)C)cc2)CC1` [Compound 4, 4-(3-Methyl-2-pyridinyl)-N-[4-(isopropyl)phenyl]-1-Piperazinecarboxamide], for which the Ki is below 4000 nM.

Regarding `CC(C)c1ccc(NC(=O)N2CCN(c3ncc(C(F)(F)F)cc3Cl)CC2)cc1` [Compound 7, 4-(3-Chloro-5-trifluoromethyl-2-pyridinyl)-N-[4-(isopropyl)phenyl]-1-piperazinecarboxamide], the Ki is below 4000 nM.

With `CC(C)c1ccc(NC(=O)N2CCN(c3ncccc3Cl)CC2)cc1` [Compound 8, 4-(3-Chloro-2-pyridinyl)-N-[4-(isopropyl)phenyl]-1-piperazinecarboxamide], the Ki is below 4000 nM.

For the compound `CC(C)c1ccc(NC(=O)N2CCN(c3ncc(Cl)cc3Cl)CC2)cc1` [Compound 9, 4-(3,5-Dichloro-2-pyridinyl)-N-[4-(isopropyl)phenyl]-1-piperazinecarboxamide], the Ki was below 4000 nM.

`Cc1cccnc1C(=O)C=Cc1ccc(C(F)(F)F)cc1` [Compound 10, 1-(3-Methyl-2-pyridinyl)-3-(4-trifluoromethylphenyl)-prop-2-en-1-one]: the Ki is below 4000 nM.

Regarding `CC(C)c1ccc(C=CC(=O)c2ncccc2C(F)(F)F)cc1` [Compound 11, 1-(3-Trifluoromethyl-2-pyridinyl)-3-(4-isopropylphenyl)-prop-2-en-1-one], the Ki was below 4000 nM.

Staying with this data set, now noted: read-out: Capsaicin rececptor Ki.
For `COc1cc(CNC(=O)N2CCN(c3ncccc3C(F)(F)F)CC2)ccc1O` [Compound 1, 4-(3-Trifluoromethyl-2-pyridinyl)-N-(3-methoxy-4-hydroxyphenylmethyl)-1-piperazinecarboxamide], the Ki was 366 nM.

For a further data set, the target named is T1, human capsaicin receptor. As to the kind of experiment: Antagonist assay for Capsaicin receptor mediated calcium mobilization. In kind it is cell-based. The following applies: Table VI, read-out: EC50 (the source's name). In outline: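 Cells expressing human capsaicin receptor, loaded with Fluo-3 AM, were preincubated 0.5–6 h at room temperature in the dark with test compound at 1–5 μM final in KRH buffer (pH 7.4, 2 mM CaCl2, probenecid). Capsaicin at its EC50 was then added via FLIPR; IC50 is the antagonist concentration halving the calcium signal.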
Consider `C[C@@H]1CN(c2nccnc2Cl)CCN1C(=O)Nc1ccc(C2CCCC2)cc1` [Compound 165, (2R)-4-(3-chloropyrazin-2-yl)-2-methyl-N-{4-cyclopentyl-phenyl}piperazine-1-carboxamide], for which the IC50 was below 1000 nM.

On to `C[C@@H]1CN(c2nccnc2Cl)CCN1C(=O)Nc1ccc(C2CCCCC2)cc1` [Compound 166, (2R)-4-(3-chloropyrazin-2-yl)-2-methyl-N-{4-cyclohexyl-phenyl}piperazine-1-carboxamide], for which the IC50 was below 1000 nM.

In the case of `CCCCc1ccc(NC(=S)N2CCN(c3ncccc3Cl)C[C@H]2C)cc1` [Compound 167], the IC50 is below 1000 nM.

As to `C[C@@H]1CN(c2ncccc2Cl)CCN1C(=S)Nc1ccc(C(C)(C)C)cc1` [Compound 168], the IC50 is below 1000 nM.

On to `CC(C)c1ccc(NC(=S)N2CCN(c3ncccc3Cl)C[C@H]2C)cc1` [Compound 169], for which the IC50 is below 1000 nM.

On to `CC(C)c1ccc(NC(=S)N2CCN(c3ncccc3Cl)C[C@@H]2C)cc1` [Compound 170], for which the IC50 is below 1000 nM.

As to `C[C@H]1CN(c2ncccc2Cl)CCN1C(=S)Nc1ccc(C(C)(C)C)cc1` [Compound 171], the IC50 is below 1000 nM.

With `C[C@@H]1CN(c2ncccc2Cl)CCN1C(=S)Nc1ccc(C(F)(F)F)cc1` [Compound 172], the IC50 was below 1000 nM.

As to `C[C@@H]1CN(c2ncccc2Cl)CCN1C(=O)Oc1ccc(C(C)(C)C)cc1` [Compound 173], the IC50 is below 1000 nM.

The values are drawn from patent US20020132853A1, “Capsaicin receptor ligands” (priority 2000, published 2002).
